Test results reported in patent US20180177749A1, “USE OF CYP EXPRESSION TO DIRECT THERAPEUTIC INTERVENTION IN CANCER” (REGENTS OF THE UNIVERSITY OF MINNESOTA, priority 2016, published 2018).

Test system: MCF-7 cells
Test: Cellular EET levels by LC-ESI/MS/MS
Format: cell-based, human
Details: metformin 5 mM, 6 hours
Protocol: Samples were submitted to liquid chromatography-electrospray ionization/multiple reaction monitoring/mass spectrometry (LC-ESI/MRM/MS) analysis in a Thermo Electron Quantum Discovery Max triple quadrupole mass spectrometer (Thermo Finnigan, San Jose, Calif.) coupled with an Agilent 1100 HPLC (Santa Clara, Calif.), using argon as the collision gas. Negative ion monitoring was performed at the following diagnostic product ions: 319 m/z→155 m/z for 8,9-EET; 319 m/z→179 m/z for 11,12-EET; 319 m/z→219 m/z for 14,15-EET; 339 m/z→163 m/z for 8,9-[13C20]EET; 339 m/z→233 m/z for 11,12-[13C20]EET; and 339 m/z→259 m/z for 14,15-[^13C20]EET. Base-line resolution of EET regioisomers was achieved on a Phenomenex Luna C18 (2) reverse phase capillary column (250×0.5 mm, 5-μm particles) using the following mobile phase combinations: isocratic 5% B for 5 min, gradient 5-70% B for 5 min, hold at 70% for 30 min and then 95% for 10 min; A: 0.01% acetic acid in water, B: 0.01% acetic acid in acetonitrile; […] flow rate. A standard curve was obtained by linear regression of the peak area ratio of authentic EET regioisomers against internal standards. The amount of EETs in samples was calculated according to the standard curve. The (±)-5,6-EET regioisomer was not measured because it undergoes rapid internal degradation. […]

CCCCCCNC(=N)NC(=N)NCc1ccccc1 [HBB, N1-hexyl-N5-benzyl-biguanide]
cellular EET levels: doesn't lower total EET levels
